Laboratory results published in patent US20050176641A1, “Long lasting natriuretic peptide derivatives” (CONJUCHEM, INC., priority 2000, published 2005).
Where two headings read alike, the source gives them in different places. Blank lines part the entries; values can stand above or below the compound they belong to. Positions of bridges follow the written chain, without caps; N, C: chain ends. Residues, ends and D or L forms follow the SMILES beside them.

Columns and labels:
[1] = target: T1, natriuretic peptide receptors with guanylate cyclase activity (Homo sapiens, UniProt P16066); assay: cGMP production in human Hela cells; type: cell-based
T1 construct: Hela cells express high levels of natriuretic peptide receptors with guanylate cyclase activity; endogenous in cells; host or cells: HeLa (human cervix epithelial adenocarcinoma)
T1 sequence (P16066 33-1061): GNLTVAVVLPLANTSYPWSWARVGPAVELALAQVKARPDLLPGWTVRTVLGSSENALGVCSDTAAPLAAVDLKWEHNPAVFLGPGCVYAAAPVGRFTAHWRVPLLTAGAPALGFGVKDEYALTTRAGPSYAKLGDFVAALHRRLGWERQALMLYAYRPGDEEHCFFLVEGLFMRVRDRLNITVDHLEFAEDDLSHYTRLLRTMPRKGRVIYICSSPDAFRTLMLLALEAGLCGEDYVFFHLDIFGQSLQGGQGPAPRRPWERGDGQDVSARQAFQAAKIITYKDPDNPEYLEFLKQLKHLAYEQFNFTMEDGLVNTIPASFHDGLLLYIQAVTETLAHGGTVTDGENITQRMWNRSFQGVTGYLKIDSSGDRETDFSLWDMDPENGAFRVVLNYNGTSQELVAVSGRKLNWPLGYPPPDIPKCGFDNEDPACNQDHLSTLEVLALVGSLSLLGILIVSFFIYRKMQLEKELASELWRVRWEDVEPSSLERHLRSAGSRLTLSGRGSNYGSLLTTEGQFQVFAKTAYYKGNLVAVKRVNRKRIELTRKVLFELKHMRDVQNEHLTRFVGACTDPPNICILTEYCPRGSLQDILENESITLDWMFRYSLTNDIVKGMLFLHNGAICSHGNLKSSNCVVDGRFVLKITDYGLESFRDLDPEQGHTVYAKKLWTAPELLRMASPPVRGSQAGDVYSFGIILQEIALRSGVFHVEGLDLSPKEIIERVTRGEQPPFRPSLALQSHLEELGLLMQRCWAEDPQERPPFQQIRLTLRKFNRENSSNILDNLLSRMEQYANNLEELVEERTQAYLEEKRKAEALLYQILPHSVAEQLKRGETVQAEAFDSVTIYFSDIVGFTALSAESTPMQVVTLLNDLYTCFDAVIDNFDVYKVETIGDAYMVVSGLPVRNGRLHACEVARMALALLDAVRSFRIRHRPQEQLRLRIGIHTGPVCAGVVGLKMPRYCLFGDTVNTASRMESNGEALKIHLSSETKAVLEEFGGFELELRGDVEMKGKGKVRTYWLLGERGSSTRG
Description: For in vitro activity studies, a human cervix epithelial adenocarcinoma cell line was used. Hela cells express high levels of natriuretic peptide receptors with guanylate cyclase activity.
One day prior cGMP experiments, cells are seeded in 48-wells plate (5×10^4 cells per well) and incubated overnight. The day of the experiment cells are washed twice in serum-free media and then incubated with or without NP derivatives or native ANP or BNP for one hour, in presence of 3-isobutyl-1-methylxanthine to prevent cGMP degradation. Incubation is terminated by removing the assay medium and by adding HCl to the cells for 10 minutes. The supernatants were then collected, centrifuged and cGMP levels are assessed using the direct cGMP EIA kit from Sigma.

NPR receptors = assay: Binding to guinea pig adrenal gland membranes by displacement of 125I-rANP
Description: The potency of NP derivatives is evaluated as their ability to bind NPR receptors in guinea pig adrenal glands and to elevate cGMP levels in a rat primary lung fibroblasts assay. Others cell lines can be used to perform these in vitro assays such as aortic smooth muscle cells, glomeruli mesangial cells and adrenal cells. Human, rat, and ginea pig cell lines or other species cell lines can be used with a preference for human cell lines.
Membranes for binding studies are prepared as follow. Adrenal glands were collected from anesthetized normal Duncan Hartley Guinea Pig and homogenized using a polytron in 50 mM Tris-HCl buffer containing 150 mM NaCl, 5 mM MgCl2, 5 mM MnCl2; pH 7.4 at 25° C. The homogenate was centrifuged for 10 minutes at 39,000×g (4° C.). The pellet was resuspended and washed. Finally, the membranes were resuspended in the same buffer supplemented with 1 mM Na2EDTA+0.2% BSA. Protein concentration is measured using the BCA protein assay kit (Pierce). The binding assay is done by incubation of membranes with 0.016 nM ^125I-rANF and increasing concentrations of either NP peptides or NP derivatives (10^−5-10^−11 M) for 60 minutes at 4° C. All assays were done in duplicate. Separation of bound and free radioactive rANF was achieved by rapid filtration through polyethylenimine-treated Whatman GF/C filters soaked in assay buffer. Filters were washed, dried and counted for radioactivity in a gamma-counter.

[2] = literature values; cited from earlier work
[3] = human Hela cells, one hour incubation, with 3-isobutyl-1-methylxanthine, read-out: EC50 (M), increase of cGMP production

Compound: CC[C@H](C)[C@@H]1NC(=O)[C@H](CCCNC(=N)N)NC(=O)[C@H](CC(=O)O)NC(=O)[C@H]([C@@H](C)CC)NC(=O)[C@H](CCCNC(=N)N)NC(=O)CNC(=O)CNC(=O)[C@H](Cc2ccccc2)NC(=O)[C@@H](N)CSSC[C@@H](C(=O)N[C@@H](CC(N)=O)C(=O)N[C@@H](CO)C(=O)N[C@@H](Cc2ccccc2)C(=O)N[C@@H](CCCNC(=N)N)C(=O)N[C@@H](Cc2ccc(O)cc2)C(N)=O)NC(=O)CNC(=O)[C@H](CC(C)C)NC(=O)CNC(=O)[C@H](CO)NC(=O)[C@H](CCC(N)=O)NC(=O)[C@H](C)NC(=O)CNC1=O [Example 13] (H-CFGGRIDRIGAQSGLGCNSFRY-NH2; disulfide 1-17)
EC50 [1, 3]: 2.72e-08 M

EC50 [1, 3]: 2.21e-08 M
Compound: CC[C@H](C)[C@@H]1NC(=O)[C@H](CCCNC(=N)N)NC(=O)[C@H](CC(=O)O)NC(=O)[C@H](CCSC)NC(=O)[C@H](CCCNC(=N)N)NC(=O)CNC(=O)CNC(=O)[C@H](Cc2ccccc2)NC(=O)[C@@H](N)CSSC[C@@H](C(=O)N[C@@H](CC(N)=O)C(=O)N[C@@H](CO)C(=O)N[C@@H](Cc2ccccc2)C(=O)N[C@@H](CCCNC(=N)N)C(=O)N[C@@H](Cc2ccc(O)cc2)C(N)=O)NC(=O)CNC(=O)[C@H](CC(C)C)NC(=O)CNC(=O)[C@H](CO)NC(=O)[C@H](CCC(N)=O)NC(=O)[C@H](C)NC(=O)CNC1=O [Example 17] (H-CFGGRMDRIGAQSGLGCNSFRY-NH2; disulfide 1-17)

Compound: CC[C@H](C)[C@@H]1NC(=O)[C@H](CCCNC(=N)N)NC(=O)[C@H](CC(=O)O)NC(=O)[C@H](CCSC)NC(=O)[C@H](CCCCN)NC(=O)[C@H](CCCNC(=N)N)NC(=O)CNC(=O)[C@H](Cc2ccccc2)NC(=O)[C@@H](NC(=O)CNC(=O)[C@H](CO)NC(=O)CNC(=O)[C@H](CCC(N)=O)NC(=O)[C@@H](NC(=O)[C@H](CCSC)NC(=O)[C@H](CCCCN)NC(=O)[C@@H]2CCCN2C(=O)[C@@H](N)CO)C(C)C)CSSC[C@@H](C(=O)N[C@@H](CCCCN)C(=O)N[C@H](C(=O)N[C@@H](CC(C)C)C(=O)N[C@@H](CCCNC(=N)N)C(=O)N[C@@H](CCCNC(=N)N)C(=O)N[C@@H](Cc2c[nH]cn2)C(N)=O)C(C)C)NC(=O)CNC(=O)[C@H](CC(C)C)NC(=O)CNC(=O)[C@H](CO)NC(=O)[C@H](CO)NC(=O)[C@H](CO)NC(=O)[C@H](CO)NC1=O [Example 21]
EC50 [1]: 1.99e-08 M | Ki (NPR receptors; displacement of 125I-ANF, read-out: apparent inhibition constant (Ki value)): 4.8 nM | Ki (NPR receptors; displacement of 125I-rANF, text gives the same Ki in M, read-out: KI (inhibition constant)): 4.86 nM | EC50 (NPR receptors; read-out: EC50 (M), concentration at 50% of inhibition, displacement of 0.016 nM 125I-rANF, 60 minutes at 4° C.): 5.41e-09 M

Compound: human BNP: native human Brain Natriuretic Peptide, 32 amino acid peptide
in vivo half-life [2]: 12.7 min
